Test results as given in patent US11078202B2, “β-lactamase inhibitor and use thereof” (priority 2018, dated 2021).
Counter-ions that a name gives are not always drawn.

How the values were obtained:
Format in all cases: cell-based
[1] = system: Acinetobacter baumannii XNWB 0007; assay: MIC assay of test compounds combined with ceftazidime (8 μg/mL); details: ceftazidime 8 μg/mL fixed
In short: (§1)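 Strains were revived from −80 °C stocks on TSA, subcultured, and single colonies were resuspended in saline to OD600 0.1-0.15. After a 300-fold dilution in 1.1×CAMHB, cells were combined with diluted compound and a fixed antibiotic. Growth was assessed after 16-20 h at 35±2 °C.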

[2] = system: Klebsiella pneumoniae XNWB 0001; assay: as above; details: ceftazidime 8 μg/mL fixed
In short: as §1

[3] = system: Klebsiella pneumoniae XNWB 0002; assay: as above; details: ceftazidime 8 μg/mL fixed
In short: as §1

[4] = system: Klebsiella pneumoniae XNWB 0003; assay: as above; details: ceftazidime 8 μg/mL fixed
In short: as §1

[5] = system: Klebsiella pneumoniae XNWB 0004; assay: as above; details: ceftazidime 8 μg/mL fixed
In short: as §1

[6] = system: Klebsiella pneumoniae XNWB 0005; assay: as above; details: ceftazidime 8 μg/mL fixed
In short: as §1

[7] = system: Klebsiella pneumoniae XNWB 0006; assay: as above; details: ceftazidime 8 μg/mL fixed
In short: as §1

[8] = system: Pseudomonas aeruginosa XNWB 0008; assay: as above; details: ceftazidime 8 μg/mL fixed
In short: as §1

[9] = system: Acinetobacter baumannii XNWB 0007; assay: MIC assay of test compounds combined with imipenem (4 μg/mL); details: imipenem 4 μg/mL fixed
In short: as §1

[10] = system: Klebsiella pneumoniae XNWB 0001; assay: as above; details: imipenem 4 μg/mL fixed
In short: as §1

[11] = system: Klebsiella pneumoniae XNWB 0002; assay: as above; details: imipenem 4 μg/mL fixed
In short: as §1

[12] = system: Klebsiella pneumoniae XNWB 0003; assay: as above; details: imipenem 4 μg/mL fixed
In short: as §1

[13] = system: Klebsiella pneumoniae XNWB 0004; assay: as above; details: imipenem 4 μg/mL fixed
In short: as §1

[14] = system: Klebsiella pneumoniae XNWB 0005; assay: as above; details: imipenem 4 μg/mL fixed
In short: as §1

[15] = system: Klebsiella pneumoniae XNWB 0006; assay: as above; details: imipenem 4 μg/mL fixed
In short: as §1

[16] = system: Pseudomonas aeruginosa XNWB 0008; assay: as above; details: imipenem 4 μg/mL fixed
In short: as §1

[17] = system: Enterobacter aerogenes XNWB 0011; assay: MIC assay of test compounds combined with ampicillin (8 μg/mL); details: ampicillin 8 μg/mL fixed
Protocol: (§2) The bacterial strains used for the minimum inhibitory concentration (MIC) test were frozen in a −80° C. ULT freezer and thawed 2 days before use. A small amount of frozen bacterial strains were scraped using a sterile inoculating loop, streaked onto a TSA solid culture dish for inoculation, and then cultured for 20-24 h at 35±2° C. in a normal atmospheric environment.
(§3) 5-10 colonies with similar morphology were picked from the culture dish using a sterile inoculating loop and then re-streaked onto a suitable solid culture dish. Then the dish was placed into a normal incubator for culture for 20-24 h at 35±2° C.
(§4) 5-10 single bacterial colonies were picked from the solid culture dish, resuspended in 500 μL of 0.9% NaCl, and adjusted to an OD600 of 0.1-0.15 with a spectrophotometer.
(§5) The bacteria were then diluted 300-fold with 1.1×CAMHB.
(§6) Test compounds of columns A-H: having a highest final test concentration of 64 μg/mL or 32 μg/mL, 2-fold diluted.
(§7) Dilution of test compounds: All test compounds were dissolved and diluted in dimethylsulfoxide (DMSO). 170 μL of 3.2 mg/mL (50*64 μg/mL) compound was transferred to wells (A1-H1) of column 1 of a dilution master plate and then 85 μL of DMSO was transferred to wells of other columns. Each compound was diluted 2-fold in sequence (i.e., 85 μL of compound was pipetted from column 1 into column 2 and mixed uniformly, 85 μL of compound was pipetted from column 2 into column 3 and mixed uniformly, then 85 μL of compound was pipetted from column 3 into column 4 and mixed uniformly, and so on until the dilution was done in column 11).
(§8) Preparation of an additive of ampicillin: Ampicillin was dissolved in ddH2O. 30 μL of 100 μg/mL (12.5×8 μg/mL) ampicillin was transferred to columns 1-11 of an additive plate, followed by the addition of 30 μL of ddH2O to column 12.
(§9) 2 μL of each compound in the dilution master plate of the test compounds was transferred to the corresponding well of the assay plates. In the mean time, 2 μL of 100% DMSO was transferred to the compound-free wells (GC and SC wells). (1) 8 μL of imipenem in the additive plate of imipenem was transferred to the corresponding wells of the assay plates; (2) 8 μL of ceftazidime in the additive plate of ceftazidime was transferred to the corresponding wells of the assay plates; (3) 8 μL of ampicillin in the additive plate of ampicillin was transferred to the corresponding wells of the assay plates.
(§10) 90 μL of corresponding bacterial inocula were added to wells (except for SC wells) of the assay plates.
(§11) After addition, the 6 assay plates were covered by sterile covers. The mixtures in the assay plates were centrifuged by a centrifuge at 1000 rpm for 30 s, and mixed uniformly by oscillating with a microplate oscillator at 800 rpm for 1 min, and then cultured in a common incubator for 16-20 h at 35±2° C.
(§12) The minimum inhibitory concentration of each compound was recorded by reference to guidelines from the Clinical and Laboratory Standards Institute.
(§13) The minimum inhibitory concentrations of the compounds of the present invention and antibiotics (imipenem, ceftazidime, and ampicillin) against 11 strains of bacteria were tested in this study by reference to the medium microdilution method as indicated by the Clinical and Laboratory Standards Institute. The effect of the test compounds in combination with imipenem, ceftazidime, and ampicillin was also tested. Compounds were diluted two-fold in 96-well plates from the highest detection concentration of 64 μg/mL. The test compounds were tested in combination with a fixed concentration of imipenem (4 μg/mL), ceftazidime (8 μg/mL), and ampicillin (8 μg/mL). The bacterial inocula in the assay plates were resuscitated from TSA and diluted in CAMHB, while growth controls (GC wells) and sterile controls (SC wells) were set up in the assay plates. […]

[18] = system: Escherichia coli XNWB 0009; assay: as above; details: ampicillin 8 μg/mL fixed
Protocol: as §2, §3, §4, §5, §6, §7, §8, §9, §10, §11, §12, §13

[19] = system: Escherichia coli XNWB 0010; assay: as above; details: ampicillin 8 μg/mL fixed
Protocol: as §2, §3, §4, §5, §6, §7, §8, §9, §10, §11, §12, §13

SMILES | The minimum concentration of test compounds combined with ceftazidime (8 μg/mL) for bacteriostasis [1] | The minimum concentration of test compounds combined with ceftazidime (8 μg/mL) for bacteriostasis [2] | The minimum concentration of test compounds combined with ceftazidime (8 μg/mL) for bacteriostasis [3] | The minimum concentration of test compounds combined with ceftazidime (8 μg/mL) for bacteriostasis [4] | The minimum concentration of test compounds combined with ceftazidime (8 μg/mL) for bacteriostasis [5] | The minimum concentration of test compounds combined with ceftazidime (8 μg/mL) for bacteriostasis [6] | The minimum concentration of test compounds combined with ceftazidime (8 μg/mL) for bacteriostasis [7] | The minimum concentration of test compounds combined with ceftazidime (8 μg/mL) for bacteriostasis [8] | The minimum concentration of test compounds combined with imipenem (4 μg/mL) for bacteriostasis [9] | The minimum concentration of test compounds combined with imipenem (4 μg/mL) for bacteriostasis [10] | The minimum concentration of test compounds combined with imipenem (4 μg/mL) for bacteriostasis [11] | The minimum concentration of test compounds combined with imipenem (4 μg/mL) for bacteriostasis [12] | The minimum concentration of test compounds combined with imipenem (4 μg/mL) for bacteriostasis [13] | The minimum concentration of test compounds combined with imipenem (4 μg/mL) for bacteriostasis [14] | The minimum concentration of test compounds combined with imipenem (4 μg/mL) for bacteriostasis [15] | The minimum concentration of test compounds combined with imipenem (4 μg/mL) for bacteriostasis [16] | The minimum concentration of test compounds combined with ampicillin (8 μg/mL) for bacteriostasis [17] | The minimum concentration of test compounds combined with ampicillin (8 μg/mL) for bacteriostasis [18] | The minimum concentration of test compounds combined with ampicillin (8 μg/mL) for bacteriostasis [19]
O=C1N2C[C@H](N1OS(=O)(=O)O)C1(CC1)C[C@H]2c1nnc(CNC2CNC2)o1 [Example 14, (1R,4S)-4-(5-((azetidin-3-ylamino)methyl)-1,3,4-oxadiazol-2-yl)-6-oxo-5,7-diazaspiro [bicyclo[3.2.1]octane-2,1′-cyclopropan]-7-yl sulfate] | C (C: 16-128 μg/mL) | A (A: <8 μg/mL) | A (A: <8 μg/mL) | B (B: 8-16 μg/mL) | B (B: 8-16 μg/mL) | B (B: 8-16 μg/mL) | A (A: <8 μg/mL) | C (C: 16-128 μg/mL) | C (C: 16-128 μg/mL) | A (A: <8 μg/mL) | A (A: <8 μg/mL) | A (A: <8 μg/mL) | A (A: <8 μg/mL) | A (A: <8 μg/mL) | A (A: <8 μg/mL) | B (B: 8-16 μg/mL) | B (B: 8-16 μg/mL) | A (A: <8 μg/mL) | 4 µg/mL
NCc1nnc([C@@H]2CC3(CC3)[C@@H]3CN2C(=O)N3OS(=O)(=O)O)o1 [Example 2, (1R,4S)-4-(5-(aminomethyl)-1,3,4-oxadiazol-2-yl)-6-oxo-5,7-diazaspiro[bicycle [3.2.1]octane-2,1′-cyclopropan]-7-yl sulfate] | C (C: 16-128 μg/mL) | A (A: <8 μg/mL) | A (A: <8 μg/mL) | A (A: <8 μg/mL) | B (B: 8-16 μg/mL) | A (A: <8 μg/mL) | A (A: <8 μg/mL) | C (C: 16-128 μg/mL) | C (C: 16-128 μg/mL) | A (A: <8 μg/mL) | A (A: <8 μg/mL) | A (A: <8 μg/mL) | A (A: <8 μg/mL) | A (A: <8 μg/mL) | A (A: <8 μg/mL) | C (C: 16-128 μg/mL) | A (A: <8 μg/mL) | A (A: <8 μg/mL) | A (A: <8 μg/mL)
NCCc1nnc([C@@H]2CC3(CC3)[C@@H]3CN2C(=O)N3OS(=O)(=O)O)o1 [Example 4, (1R,4S)-4-(5-(2-aminoethyl)-1,3,4-oxadiazol-2-yl)-6-oxo-5,7-diazaspiro[bicycle[3.2.1]octane-2,1′-cyclopropan]-7-yl sulfate] | C (C: 16-128 μg/mL) | A (A: <8 μg/mL) | A (A: <8 μg/mL) | A (A: <8 μg/mL) | A (A: <8 μg/mL) | A (A: <8 μg/mL) | A (A: <8 μg/mL) | C (C: 16-128 μg/mL) | B (B: 8-16 μg/mL) | A (A: <8 μg/mL) | A (A: <8 μg/mL) | A (A: <8 μg/mL) | A (A: <8 μg/mL) | A (A: <8 μg/mL) | A (A: <8 μg/mL) | A (A: <8 μg/mL) | B (B: 8-16 μg/mL) | A (A: <8 μg/mL) | A (A: <8 μg/mL)
